The values below are quoted from earlier work in patent US12564203B2, “Coating composition comprising pH-sensitive polymer” (CJ CHEILJEDANG CORPORATION, priority 2020, dated 2026).

The conditions of this data set: degree of hydrophilicity (hydrophobicity) of an amino acid.
As to `N=C(N)NCCC[C@H](N)C(=O)O` [arginine], the hydropathy index is recorded as −4.5. Turning to `NCCCC[C@H](N)C(=O)O` [lysine], the hydropathy index is −3.9. In the case of `CC[C@H](C)[C@H](N)C(=O)O` [isoleucine], the hydropathy index is on record as 4.5. As to `CC(C)[C@H](N)C(=O)O` [valine], the hydropathy index was 4.2.
